The experiment deals with human normal epidermal cells. The experiment can be described thus: Production of skin irritation mediators in human three-dimensional epidermal culture model (LabCyte EPI-MODEL), ELISA. In kind it is cell-based. The text has this:
There was used a human three-dimensional epidermal culture model in which human normal epidermal cells were multilayer-cultured (LabCyte EPI-MODEL, Japan Tissue Engineering Co., Ltd.). LabCyte is a cultured skin cultured in a transwell. For the experiment, LabCyte was used with the transwell.
A cholesterol (Wako Pure Chemical Industries, Ltd.) was used as a test article. Donepezil hydrochloride was used as the drug. Olive oil (Wako Pure Chemical Industries, Ltd.) was used as a vehicle.
Tests were conducted by the following group composition. • Drug Alone Group: A group with addition of 4×10^−4 M of donepezil hydrochloride alone dispersed in a vehicle, as a test solution. • Cholesterol Addition Group: A group with addition of 4×10^−4 M of donepezil hydrochloride and 1% by mass of cholesterol which were dispersed in a vehicle, as a test solution.
The test solutions of each group were added to the cells, the culture after being incubated for 48 hours were collected, and the production amounts of skin irritation mediators were measured. PGE2, IL-1α, IL-6 and IL-8 were measured as the skin irritation mediators. The skin irritation mediators were measured by using a commercially available ELISA kit (R&D Systems, Inc.). The relative production amount of the skin irritation mediator in the Cholesterol Addition Group was calculated as below, when the production amount of the skin irritation mediators in Drug Alone Group was set to 100.
Relative production amount=(production amount of the mediator in Cholesterol Addition Group)/(production amount of the mediator in Drug Alone Group)×100
For orientation: An ELISA detects its analyte on a solid surface through an enzyme-linked reagent.

The mark [1] stands for this setting: 4×10^−4 M donepezil hydrochloride + 1% by mass cholesterol in olive oil, 48 hours incubation.

Where a name gives a salt, the structure may show the parent alone.

`COc1cc2c(cc1OC)C(=O)C(CC1CCN(Cc3ccccc3)CC1)C2` (centres unmarked) [Donepezil hydrochloride, 2-[(1-benzyl-4-piperidinyl)methyl]-5,6-dimethoxyindane-1-on]: under setting [1], the “relative production amount of skin irritation mediator IL-1α (drug alone group set to 100)” value worked out at 0, the “relative production amount of skin irritation mediator IL-6 (drug alone group set to 100)” value is recorded as 85, the “relative production amount of skin irritation mediator IL-8 (drug alone group set to 100)” value is 59 and the “relative production amount of skin irritation mediator PGE2 (drug alone group set to 100)” value turned out to be 33.

As to `CC(C)CCC[C@@H](C)[C@H]1CC[C@H]2[C@@H]3CC=C4C[C@@H](O)CC[C@]4(C)[C@H]3CC[C@]12C` [cholesterol, (3β)-cholest-5-en-3-olcholest-5-en-3β-ol], for the setting “1% by mass cholesterol added to 4×10^−4 M donepezil hydrochloride, 48 hours”, the “effect on production amounts of skin irritation mediators by donepezil hydrochloride” value is listed as “effects of decreasing the production amounts of skin irritation mediators”.
